Measurements as given in US20220364989A1, “METHOD FOR MEASURING PHOTOTOXICITY OR PHOTOALLERGY AND REAGENT FOR USE THEREIN” (FUJIFILM Corporation, priority 2018, published 2022).
Where two headings read alike, the source gives them in different places.

How the values were obtained:
[1] = 24 h, 0.25 mmol/L
[2] = 24 h, 0.25 mmol/L, pH 10.2
[3] = cited from earlier work
[4] = 24 h, 0.25 mmol/L, pH 8
[5] = cited from earlier work; remark: listed apart in the source
[6] = 24 h, 0.25 mmol/L, pH 8; remark: listed apart in the source
[7] = 24 h, 0.25 mmol/L, pH 10.2; remark: listed apart in the source

| Difference in depletion (under light irradiation - without light irradiation) NAC (%) [6] [%] | NAC Depletion (%) under light irradiation [6] [%] | NAC Depletion (%) without light irradiation [6] [%] | Difference in depletion (under light irradiation - without light irradiation) NAL (%) [7] [%] | NAL Depletion (%) under light irradiation [7] [%] | NAL Depletion (%) without light irradiation [7] [%] | SMILES | Average score (%) [1] [%] | NAL Depletion (%) [2] [%] | In vivo photoallergy ([3]; in vivo) | NAC Depletion (%) [4] [%] | In vivo phototoxicity ([5]; in vivo) | In vivo photoallergy ([3]; reported in References 1 and 2) | In vivo phototoxicity ([5]; reported in References 1 to 3) |
| --- | --- | --- | --- | --- | --- | --- | --- | --- | --- | --- | --- | --- | --- |
| – | – | – | – | – | – | Oc1ccc(Cl)cc1Cc1cc(Cl)ccc1O [No. 21, Dichlorophen] | 56.5 | 14.5 | Positive | 98.5 | – | – | – |
| – | – | – | – | – | – | CCCCC(CC)COC(=O)c1ccc(N(C)C)cc1 (stereo not shown) [No. 19, 2-ethylhexyl p-dimethylaminobenzoate] | – | 1.3 | Positive | 98.1 | Negative | – | – |
| 95.8 | 96.3 | 0.5 | 5.5 | 5.7 | 0.2 | Cc1ccc2oc(=O)ccc2c1 [compound 2, 6-Methylcoumarin] | – | – | – | – | – | Positive | Positive |
